Patent publication US20060069132A1, “Azolecarboxamide herbicides” (priority 2004, published 2006)

How the values were obtained:
giant foxtail = assay: Test C pre-/postemergence herbicide test; format: in vivo, Setaria faberi
In short: (§1)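 Preemergence: seeds planted and treated with compound in non-phytotoxic solvent with surfactant; postemergence: plants at 2 to 18 cm (1- to 4-leaf stage) sprayed likewise. Kept in greenhouse 12 to 14 days, then visually rated against controls, 0 (no effect) to 100 (complete control).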

bermudagrass = assay: Test C pre-/postemergence herbicide test; format: in vivo, Cynodon dactylon
In short: as §1

cocklebur = assay: Test C pre-/postemergence herbicide test; format: in vivo, Xanthium strumarium
In short: as §1

morningglory = assay: Test C pre-/postemergence herbicide test; format: in vivo, Ipomoea coccinea; set-up: key to Plant response rating, Morningglory: 0 = no effect, 100 = complete control
In short: as §1

yellow nutsedge = assay: Test C pre-/postemergence herbicide test; format: in vivo, Cyperus esculentus
In short: as §1

[1] = test system: common (oilseed) sunflower; assay: Test C pre-/postemergence herbicide test; format: in vivo, Helianthus annuus; settings: for Plant response rating (0 = no effect, 100 = complete control), Sunflower: 62 g ai/ha; for Plant response rating (0 = no effect, 100 = complete control), Sunflower / Plant response rating, Sunflower: preemergence
In short: as §1

pigweed = assay: Test C pre-/postemergence herbicide test; format: in vivo, Amaranthus retroflexus
In short: as §1

velvetleaf = assay: Test C pre-/postemergence herbicide test; format: in vivo, Abutilon theophrasti
In short: as §1

rice = assay: Test B pre-/postemergence herbicide test; format: in vivo, Oryza sativa; settings: preemergence, 125 g ai/ha; 0 to 100 scale, 0 is no effect, 100 is complete control
In short: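 Plants compared with untreated controls 13–15 days post-treatment and given a visual 0–100 injury score. Applications: preemergence to seeds; postemergence at 1- to 4-leaf (2–18 cm); paddy species flooded, 2-leaf stage. Vehicle non-phytotoxic, surfactant included.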

soybean = assay: Test C pre-/postemergence herbicide test; format: in vivo, Glycine max
In short: as §1

[2] = 125 g ai/ha, scale 0 (no effect) to 100 (complete control), visual, 12 to 14 days, preemergence
[3] = 250 g ai/ha, scale 0 to 100 (0 no effect, 100 complete control), visual, 12 to 14 days, preemergence
[4] = Preemergence, 500 g ai/ha, scale 0 to 100, 0 no effect, 100 complete control
[5] = 125 g ai/ha, scale 0 (no effect) to 100 (complete control), visual, 12 to 14 days
[6] = 250 g ai/ha, scale 0 to 100 (0 no effect, 100 complete control), visual, 12 to 14 days
[7] = 31 g ai/ha, preemergence, scale 0 to 100
[8] = Postemergence, 250 g ai/ha, scale 0 to 100, 0 no effect, 100 complete control
[9] = postemergence, 125 g ai/ha, scale 0 to 100
[10] = postemergence, 62 g ai/ha, scale 0 to 100
[11] = postemergence, 31 g ai/ha, scale 0 to 100

SMILES: CCCn1nc(C(C)(C)C)cc1C(=O)Nc1cccc(C(=O)NCC)c1 [Compound 57]
- Plant response rating (0 = no effect, 100 = complete control), Foxtail, Giant (giant foxtail; 62 g ai/ha, preemergence): 20
- Plant response rating, Foxtail, Giant (giant foxtail; [2]): 95
- Plant response rating, Foxtail, Giant (giant foxtail; [3]): 100
- Foxtail, Giant plant response rating (giant foxtail; [4]): 100
- Plant response rating (0 = no effect, 100 = complete control), Bermudagrass (bermudagrass; 62 g ai/ha, preemergence): 55
- Plant response rating, Bermudagrass (bermudagrass; [2]): 95
- Plant response rating, Bermudagrass (bermudagrass; [3]): 95
- Bermudagrass plant response rating (bermudagrass; [4]): 100
- Plant response rating (0 = no effect, 100 = complete control), Cocklebur (cocklebur; 62 g ai/ha, preemergence): 0
- Plant response rating, Cocklebur (cocklebur; [2]): 0
- Plant response rating, Cocklebur (cocklebur; [3]): 0
- Cocklebur plant response rating (cocklebur; [4]): 0
- Plant response rating (0 = no effect, 100 = complete control), Morningglory (morningglory; 62 g ai/ha, preemergence): 0
- Plant response rating, Morningglory (morningglory; [2]): 0
- Plant response rating, Morningglory (morningglory; [3]): 25
- Morningglory plant response rating (morningglory; [4]): 25
- Plant response rating (0 = no effect, 100 = complete control), Nutsedge, Yellow (yellow nutsedge; 62 g ai/ha, preemergence): 0
- Plant response rating, Nutsedge, Yellow (yellow nutsedge; [2]): 0
- Plant response rating, Nutsedge, Yellow (yellow nutsedge; [3]): 0
- Nutsedge, Yellow plant response rating (yellow nutsedge; [4]): 20
- Plant response rating (0 = no effect, 100 = complete control), Sunflower [1]: 0
- Plant response rating, Sunflower [1, 5]: 0
- Plant response rating, Sunflower [1, 6]: 0
- Sunflower plant response rating [1, 4]: 0
- Plant response rating (0 = no effect, 100 = complete control), Pigweed (pigweed; 62 g ai/ha, preemergence): 100
- Plant response rating, Pigweed (pigweed; [2]): 100
- Plant response rating, Pigweed (pigweed; [3]): 100
- Pigweed plant response rating (pigweed; [4]): 100
- Plant response rating (0 = no effect, 100 = complete control), Velvetleaf (velvetleaf; 62 g ai/ha, preemergence): 0
- Plant response rating, Velvetleaf (velvetleaf; [2]): 0
- Plant response rating, Velvetleaf (velvetleaf; [3]): 100
- Velvetleaf plant response rating (velvetleaf; [4]): 100
- Plant response rating, Rice (rice): 30
- Plant response rating (0 = no effect, 100 = complete control), Soybean (soybean; 62 g ai/ha, preemergence): 0
- Plant response rating, Soybean (soybean; [2]): 0
- Plant response rating, Soybean (soybean; [3]): 0
- Soybean plant response rating (soybean; [4]): 60

SMILES: CCn1nc(C(C)(C)C)cc1C(=O)Nc1ccc(F)c(C(=O)NCCF)c1 [Compound 60]
- Plant response rating, Foxtail, Giant (giant foxtail; [7]): 0
- Plant response rating (0 = no effect, 100 = complete control), Foxtail, Giant (giant foxtail; 62 g ai/ha, preemergence): 0
- Plant response rating, Foxtail, Giant (giant foxtail; [2]): 15
- Plant response rating, Foxtail, Giant (giant foxtail; [3]): 80
- Plant response rating, Foxtail, Giant (giant foxtail; [8]): 5
- Plant response rating, Foxtail, Giant (giant foxtail; [9]): 5
- Plant response rating, Foxtail, Giant (giant foxtail; [10]): 0
- Plant response rating, Bermudagrass (bermudagrass; [7]): 30
- Plant response rating (0 = no effect, 100 = complete control), Bermudagrass (bermudagrass; 62 g ai/ha, preemergence): 80
- Plant response rating, Bermudagrass (bermudagrass; [2]): 100
- Plant response rating, Bermudagrass (bermudagrass; [3]): 100
- Bermudagrass plant response rating (bermudagrass; Postemergence, 250 g ai/ha, scale 0 to 100): 5
- Plant response rating, Bermudagrass (bermudagrass; [9]): 0
- Plant response rating, Bermudagrass (bermudagrass; [11]): 0
- Plant response rating, Bermudagrass (bermudagrass; [10]): 0
- Plant response rating, Cocklebur (cocklebur; [7]): 0
- Plant response rating (0 = no effect, 100 = complete control), Cocklebur (cocklebur; 62 g ai/ha, preemergence): 0
- Plant response rating, Cocklebur (cocklebur; [2]): 0
- Plant response rating, Cocklebur (cocklebur; [3]): 5
- Plant response rating, Cocklebur (cocklebur; [8]): 10
- Plant response rating, Cocklebur (cocklebur; [9]): 10
- Plant response rating, Cocklebur (cocklebur; [11]): 10
- Plant response rating, Cocklebur (cocklebur; [10]): 10
- Plant response rating, Morningglory (morningglory; [7]): 0
- Plant response rating (0 = no effect, 100 = complete control), Morningglory (morningglory; 62 g ai/ha, preemergence): 0
- Plant response rating, Morningglory (morningglory; [2]): 5
- Plant response rating, Morningglory (morningglory; [3]): 10
- Plant response rating, Morningglory (morningglory; [8]): 10
- Plant response rating, Morningglory (morningglory; [9]): 10
- Plant response rating, Morningglory (morningglory; [10]): 10
- Plant response rating, Nutsedge, Yellow (yellow nutsedge; [7]): 0
- Plant response rating (0 = no effect, 100 = complete control), Nutsedge, Yellow (yellow nutsedge; 62 g ai/ha, preemergence): 0
- Plant response rating, Nutsedge, Yellow (yellow nutsedge; [2]): 0
- Plant response rating, Nutsedge, Yellow (yellow nutsedge; [3]): 5
- Plant response rating, Nutsedge, Yellow (yellow nutsedge; [8]): 0
- Plant response rating, Nutsedge, Yellow (yellow nutsedge; [9]): 0
- Plant response rating, Nutsedge, Yellow (yellow nutsedge; [10]): 0
- Plant response rating, Sunflower ([1]; 31 g ai/ha, scale 0 to 100): 0
- Plant response rating (0 = no effect, 100 = complete control), Sunflower [1]: 0
- Plant response rating, Sunflower [1, 5]: 0
- Plant response rating, Sunflower [1, 6]: 0
- Plant response rating, Pigweed (pigweed; [7]): 100
- Plant response rating (0 = no effect, 100 = complete control), Pigweed (pigweed; 62 g ai/ha, preemergence): 100
- Plant response rating, Pigweed (pigweed; [2]): 100
- Plant response rating, Pigweed (pigweed; [3]): 100
- Plant response rating, Pigweed (pigweed; [8]): 60
- Plant response rating, Pigweed (pigweed; [9]): 40
- Plant response rating, Pigweed (pigweed; [10]): 40
- Plant response rating, Velvetleaf (velvetleaf; [7]): 5
- Plant response rating, Velvetleaf (velvetleaf; [2]): 70
- Plant response rating, Velvetleaf (velvetleaf; [3]): 85
- Plant response rating, Velvetleaf (velvetleaf; [8]): 30
- Plant response rating, Velvetleaf (velvetleaf; [9]): 20
- Plant response rating, Velvetleaf (velvetleaf; [10]): 20
- Plant response rating, Rice (rice): 30
- Plant response rating, Soybean (soybean; [7]): 0
- Plant response rating (0 = no effect, 100 = complete control), Soybean (soybean; 62 g ai/ha, preemergence): 0
- Plant response rating, Soybean (soybean; [2]): 0
- Plant response rating, Soybean (soybean; [3]): 0
- Plant response rating, Soybean (soybean; [8]): 50
- Plant response rating, Soybean (soybean; [9]): 40
- Plant response rating, Soybean (soybean; [10]): 20
